From patent US11332459B2 (TEIJIN PHARMA LIMITED, priority 2017, dated 2022)
Structures can show the parent of a compound that is named as a salt.

Molecular target: T1, human TRPC6 (Homo sapiens, UniProt Q9Y210)
T1 construct: expressed in transfected cells
T1 sequence (Q9Y210 1-931): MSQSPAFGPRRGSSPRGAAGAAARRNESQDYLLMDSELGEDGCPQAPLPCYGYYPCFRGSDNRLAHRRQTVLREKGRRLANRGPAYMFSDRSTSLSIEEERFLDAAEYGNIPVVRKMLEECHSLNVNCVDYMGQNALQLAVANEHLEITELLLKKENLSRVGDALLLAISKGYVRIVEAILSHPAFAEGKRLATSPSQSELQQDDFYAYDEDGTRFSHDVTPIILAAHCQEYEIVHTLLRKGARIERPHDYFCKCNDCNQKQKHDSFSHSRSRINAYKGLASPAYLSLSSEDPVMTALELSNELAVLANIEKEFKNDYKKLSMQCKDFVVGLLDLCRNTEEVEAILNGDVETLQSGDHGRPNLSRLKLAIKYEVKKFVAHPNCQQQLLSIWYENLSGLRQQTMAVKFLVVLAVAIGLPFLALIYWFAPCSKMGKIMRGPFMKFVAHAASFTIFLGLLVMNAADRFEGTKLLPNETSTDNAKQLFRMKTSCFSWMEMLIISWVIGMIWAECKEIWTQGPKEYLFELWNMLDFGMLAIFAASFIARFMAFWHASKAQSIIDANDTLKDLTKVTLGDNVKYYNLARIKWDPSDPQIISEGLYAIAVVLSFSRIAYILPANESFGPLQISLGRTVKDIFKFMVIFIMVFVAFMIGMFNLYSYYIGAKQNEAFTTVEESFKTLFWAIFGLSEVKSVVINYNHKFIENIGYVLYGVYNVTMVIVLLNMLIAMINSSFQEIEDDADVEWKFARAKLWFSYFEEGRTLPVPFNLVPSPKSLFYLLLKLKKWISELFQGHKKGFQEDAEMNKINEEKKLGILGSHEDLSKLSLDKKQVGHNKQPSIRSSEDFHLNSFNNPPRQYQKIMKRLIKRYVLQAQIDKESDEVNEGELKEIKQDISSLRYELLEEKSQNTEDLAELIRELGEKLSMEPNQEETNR
Experiment: TRPC6 calcium flux assay (FLIPR, OAG-stimulated calcium influx)
Type: cell-based
Details: HEK293 cells stably transfected with human TRPC6, read-out: hTRPC6 Potency
Procedure, shortened: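 IC50 derived by plotting background-corrected peak fluorescence (180 s window, normalized to OAG-triggered signal vs buffer) against dose. Stable human TRPC6 HEK293 line was dye-loaded, exposed to compound 25 min, then challenged with 50 uM final OAG in 2 mM Ca2+ HEPES buffer pH 7.2, 0.5% DMSO.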

IC50 | SMILES
13.5 nM | C[C@]1(N)CCCN(c2nc3ccccc3n2Cc2ccc(C#N)cn2)C1 [Example 141, 6-((2-((3S)-3-amino-3-methyl-1-piperidinyl)-1H-benzimidazol-1-yl)methyl)-3-pyridinecarbonitrile]
13.8 nM | COc1ccc2nc(N3CCC[C@H](N)C3)n(Cc3ccc(C#N)cn3)c2c1 [Example 142, (S)-6-((2-(3-aminopiperidin-1-yl)-6-methoxy-1H-benzo[d]imidazol-1-yl)methyl)nicotinonitrile 2,2,2-trifluoroacetate]
6.86 nM | COc1ccc2c(c1)nc(N1CCC[C@H](N)C1)n2Cc1ccc(C#N)cn1 [Example 143, (S)-6-((2-(3-aminopiperidin-1-yl)-5-methoxy-1H-benzo[d]imidazol-1-yl)methyl)nicotinonitrile 2,2,2-trifluoroacetate]
0.462 nM | N#Cc1ccc(Cn2c(N3CC[C@@H](F)[C@H](N)C3)nc3c(Cl)cc(F)cc32)nc1 [Example 144, 6-((2-((3R,4R)-3-amino-4-fluoropiperidin-1-yl)-4-chloro-6-fluoro-1H-benzo[d]imidazol-1-yl)methyl)nicotinonitrile 2,2,2-trifluoroacetate]
14 nM | COc1ccc2c(c1)nc(N1CC[C@@H](F)[C@H](N)C1)n2Cc1ccc(C#N)cn1 [Example 145, 6-((2-((3R,4R)-3-amino-4-fluoropiperidin-1-yl)-5-methoxy-1H-benzo[d]imidazol-1-yl)methyl)nicotinonitrile hydrochloride]
0.631 nM | COc1ccc2nc(N3CC[C@@H](F)[C@H](N)C3)n(Cc3ccc(C#N)cn3)c2c1 [Example 146, 6-((2-((3R,4R)-3-amino-4-fluoropiperidin-1-yl)-6-methoxy-1H-benzo[d]imidazol-1-yl)methyl)nicotinonitrile hydrochloride]
0.433 nM | COc1ccc2nc(N3CC[C@H](F)[C@H](N)C3)n(Cc3ccc(C#N)cn3)c2c1 [Example 147, 6-((2-((3R,4S)-3-amino-4-fluoropiperidin-1-yl)-6-methoxy-1H-benzo[d]imidazol-1-yl)methyl)nicotinonitrile hydrochloride]
11.8 nM | COc1ccc2c(c1)nc(N1CC[C@H](F)[C@H](N)C1)n2Cc1ccc(C#N)cn1 [Example 148, 6-((2-((3R,4S)-3-amino-4-fluoropiperidin-1-yl)-5-methoxy-1H-benzo[d]imidazol-1-yl)methyl)nicotinonitrile hydrochloride]
1.09 nM | N#Cc1cc(F)cc2c1nc(N1CC[C@H](F)[C@H](N)C1)n2Cc1ncc(Cl)cn1 [Example 149, 2-((3R,4S)-3-amino-4-fluoropiperidin-1-yl)-1-((5-chloropyrimidin-2-yl)methyl)-6-fluoro-1H-benzo[d]imidazole-4-carbonitrile]
9.02 nM | N#Cc1cc(F)cc2nc(N3CCC(F)(F)[C@H](N)C3)n(Cc3ncc(Cl)cn3)c12 [Example 150, (R)-2-(3-amino-4,4-difluoropiperidin-1-yl)-1-((5-chloropyrimidin-2-yl)methyl)-5-fluoro-1H-benzo[d]imidazole-7-carbonitrile]
6.06 nM | N#Cc1cc(F)cc2c1nc(N1CCC(F)(F)[C@H](N)C1)n2Cc1ncc(Cl)cn1 [Example 151, (R)-2-(3-amino-4,4-difluoropiperidin-1-yl)-1-((5-chloropyrimidin-2-yl)methyl)-6-fluoro-1H-benzo[d]imidazole-4-carbonitrile]
67.7 nM | N#Cc1ccc(Cn2c(N3CC[C@@H](O)[C@H](N)C3)nc3ccc(Cl)cc32)nc1 [Example 152, 6-((2-((3R,4R)-3-amino-4-hydroxypiperidin-1-yl)-6-chloro-1H-benzo[d]imidazol-1-yl)methyl)nicotinonitrile]
72 nM | N#Cc1ccc(Cn2c(N3CC[C@H](O)[C@H](N)C3)nc3ccc(Cl)cc32)nc1 [Example 153, 6-((2-((3R,4S)-3-amino-4-hydroxypiperidin-1-yl)-6-chloro-1H-benzo[d]imidazol-1-yl)methyl)nicotinonitrile]
3.06 nM | N#Cc1ccc(Cn2c(N3CCC(F)(F)[C@H](N)C3)nc3ccccc32)cc1 [Example 154, (R)-4-((2-(3-amino-4,4-difluoropiperidin-1-yl)-1H-benzo[d]imidazol-1-yl)methyl)benzonitrile]
61.7 nM | N#Cc1ccc(Cn2c(N3CC[C@@H](F)[C@H](N)C3)nc3cc(F)cc(F)c32)cc1 [Example 156]
0.501 nM | N#Cc1ccc(Cn2c(N3CC[C@@H](F)[C@H](N)C3)nc3c(F)cc(F)cc32)cc1 [Example 157, 4-((2-((3R,4R)-3-amino-4-fluoro-1-piperidinyl)-4,6-difluoro-1H-benzimidazol-1-yl)methyl)benzonitrile]

IC50 | SMILES
4.71 nM | N#Cc1ccc(Cn2c(N3CC[C@@H](F)[C@H](N)C3)nc3ccc(C#N)cc32)cc1 [Example 158, 2-((3R,4R)-3-amino-4-fluoro-1-piperidinyl)-1-(4-cyanobenzyl)-1H-benzimidazole-6-carbonitrile]
16.4 nM | N#Cc1ccc(Cn2c(N3CC[C@@H](F)[C@H](N)C3)nc3cc(C#N)ccc32)cc1 [Example 159, 2-((3R,4R)-3-amino-4-fluoro-1-piperidinyl)-1-(4-cyanobenzyl)-1H-benzimidazole-5-carbonitrile]
14.2 nM | N#Cc1ccc(Cn2c(N3CCC(F)(F)[C@H](N)C3)nc3ccc(C#N)cc32)cc1 [Example 160, 2-((3R)-3-amino-4,4-difluoro-1-piperidinyl)-1-(4-cyanobenzyl)-1H-benzimidazole-6-carbonitrile]
133 nM | N#Cc1ccc(Cn2c(N3CCC(F)(F)[C@H](N)C3)nc3cc(C#N)ccc32)cc1 [Example 161, 2-((3R)-3-amino-4,4-difluoro-1-piperidinyl)-1-(4-cyanobenzyl)-1H-benzimidazole-5-carbonitrile]
257 nM | N#Cc1ccc(Cn2c(N3CCC[C@@H](N)C3)nc3ccccc32)cc1 [Example 162, (R)-4-((2-(3-aminopiperidin-1-yl)-1H-benzo[d]imidazol-1-yl)methyl)benzonitrile]
2840 nM | C[C@@H]1CCN(c2nc3ccccc3n2Cc2ccc(C#N)cc2)C[C@@H]1N [Example 163, 4-((2-((3R,4R)-3-amino-4-methylpiperidin-1-yl)-1H-benzo[d]imidazol-1-yl)methyl)benzonitrile]
560 nM | N#Cc1ccc(Cn2c(N3CC[C@H](N)C3)nc3ccccc32)cc1 [Example 166, (S)-4-((2-(3-aminopyrrolidin-1-yl)-1H-benzo[d]imidazol-1-yl)methyl)benzonitrile]
1.97 nM | N#Cc1ccc(Cn2c(N3CCC[C@H](N)C3)nc3ccccc32)cc1 [Example 167, (S)-4-((2-(3-aminopiperidin-1-yl)-1H-benzo[d]imidazol-1-yl)methyl)benzonitrile]
1600 nM | N#Cc1ccc(Cn2c(N3CCC4(CCCC4N)C3)nc3ccccc32)cc1 (stereo not shown) [Example 168, 4-((2-(6-amino-2-azaspiro[4.4]nonan-2-yl)-1H-benzo[d]imidazol-1-yl)methyl)benzonitrile]
14.2 nM | N#Cc1ccc(Cn2c(N3CC4CCC(N)C4C3)nc3ccccc32)cc1 (stereo not shown) [Example 169, 4-((2-(4-aminohexahydrocyclopenta[c]pyrrol-2(1H)-yl)-1H-benzo[d]imidazol-1-yl)methyl)benzonitrile]
25.9 nM | N#Cc1ccc(Cn2c(N3CC[C@H](F)[C@@H](N)C3)nc3ccccc32)cc1 [Example 170, 4-((2-((3S,4S)-3-amino-4-fluoropiperidin-1-yl)-1H-benzo[d]imidazol-1-yl)methyl)benzonitrile]
544 nM | N#Cc1ccc(Cn2c(N3CC[C@@H](F)[C@@H](N)C3)nc3ccccc32)cc1 [Example 171, 4-((2-((3S,4R)-3-amino-4-fluoropiperidin-1-yl)-1H-benzo[d]imidazol-1-yl)methyl)benzonitrile]
2.22 nM | N#Cc1ccc(Cn2c(N3CC[C@H](F)[C@H](N)C3)nc3ccccc32)cc1 [Example 172, 4-((2-((3R,4S)-3-amino-4-fluoropiperidin-1-yl)-1H-benzo[d]imidazol-1-yl)methyl)benzonitrile]
1.38 nM | N#Cc1ccc(Cn2c(N3CC[C@@H](F)[C@H](N)C3)nc3ccccc32)cc1 [Example 173, 4-((2-((3R,4R)-3-amino-4-fluoropiperidin-1-yl)-1H-benzo[d]imidazol-1-yl)methyl)benzonitrile]
564 nM | N#Cc1ccc(Cn2c(N3CC[C@@](F)(CN)C3)nc3ccccc32)cc1 [Example 174, (R)-4-((2-(3-(aminomethyl)-3-fluoropyrrolidin-1-yl)-1H-benzo[d]imidazol-1-yl)methyl)benzonitrile 2,2,2-trifluoroacetate]
